From patent publication US20030203963A1, “Antimicrobial agent” (priority 2001, published 2003)

Columns and labels:
[1] = test system: B. subtilis Campden; assay: Bioscreen growth inhibition test; type: cell-based, Bacillus subtilis; conditions: BS010510, 24 h at 30° C., APP20010213
Protocol: (§1) For broth cultures and Bioscreen testing most bacteria were grown in Brain Heart Infusion (BHI, Oxoid, pH 7.4). Lactobacillus sake A10 was grown in de Man, Rogosa, Sharpe medium ([…], Oxoid). Yeasts were grown in Sabouraud Liquid medium (SLM, Oxoid). Most bacteria were cultured at 30° C. Lactic acid bacteria were grown on solid medium in enriched CO2 atmosphere. Clostridium species were grown in Reinforced Clostridial Medium (RCM) at 37° C. anaerobically. Brochothrix thermosphacta fungi and yeasts were grown at 25° C. Fungi were cultured on Malt Extract Agar (MEA, Oxoid).
(§2) An automated Microbiology Reader Bioscreen C was used to measure growth curves of the strains in the presence and absence of APP. The Bioscreen C measures the development of turbidity (i.e. growth) kinetically by vertical photometry in 200 wells of a honeycomb microtitre plate, simultaneously. The system consists of a Bioscreen C analyser, which is an incubator and measurement unit, integrated with a PC, software (BioLink v 5.30), printer and a ‘Honeycomb 2’ cuvette multiwell plate. Growth curve data can be analysed within the BioLink software or exported to programs such as Excel.
(§3) Broth culture media were dispensed in 270 μl volumes into the wells as directed. […] (depending on the micro-organism under investigation) with readings taken every 20 minutes after the trays were shaken. […]

[2] = test system: Br. thermosphacta CRA7883; assay: Bioscreen growth inhibition test; type: cell-based, Brochothrix thermosphacta; conditions: BS010420, 72 h at 25° C., APP20010213
Protocol: as §1, §2, §3

[3] = test system: L. monocytogenes S23; assay: In vitro cidal experiment; type: cell-based, Listeria monocytogenes; conditions: ambient temperature
Protocol: 100 μl of SDW (sterile deionised water) or APP sample E002012 was added to 890 μl 10 mM HEPES buffer (pH 7). […] After this time the bacteria were enumerated by viable count. The concentration of the APP sample was 24.7 μg/ml.

[4] = test system: L. monocytogenes 272; assay: Chicken soup trial at 8° C.; type: cell-based, Listeria monocytogenes; conditions: chicken soup at 8° C.
Source text: (§4) A local supermarket brand of cream of chicken soup was used as a model food system. 600 g packs were purchased from the local supermarket. This was a ‘fresh home-made type’ of soup that was stored in the chill cabinet, with a short shelf life. It was chosen because it is a rich, nutritious food system containing a range of food components including meat, dairy and vegetable.
(§5) Ingredients were labelled as: chicken stock (water, duck fat, chicken, salt, flavourings, yeast extracts, pork gelatine, glucose syrup, vegetable concentrate, milk protein, sugar, malto-dextrin, vegetable oil, citric acid, lactose, chicken fat), ilk, chicken (9%), cream (8%), onion, potato, vegetable oil, modified maize starch, wheat flour, lemon juice, salt, white pepper. pH 5.912. Protein: 3.3%; carbohydrate: 4.7%; fat: 7.2%; fibre: 0.2%; sodium: 0.1%
(§6) For the test the soup was mixed 2:1 in water (to facilitate sampling and mixing) and sterilised by autoclaving at 121° C. for 15 minutes. For each experiment the pH of the soup was recorded; this was between pH 5.79-5.88.
For TCS010412/8 (which was incubated at 8° C.), APP batch number APP20010213 (concentration 169 mg APP/ml) was used to prepare tests containing 0, 2000 or 4000 ppm APP. 5 g of filter-sterilised APP stock solution was added to 94 g of soup, mixed and then 1 ml of a diluted inoculum suspension (cells or spores as appropriate) was added to give a test inoculum level of 10^3 cfu/g. The soup mixture was shaken vigorously to ensure homogeneous distribution of the APP and micro-organisms. The tests were tested by viable count and then incubated at 8° C. and tested on a twice-weekly basis.
(§7) For TCS010521/8 (incubated at 8° C.), samples were prepared in 27.8 g quantities. 1.5 g of an APP stock solution was added, and the tests inoculated with 0.3 ml of a suitably diluted cell or spore suspension to give a final inoculum of ca. 10^3 cfu/g. APP was tested at 0, 500 and 1000 ppm, and batch number APP20010213 (at 169 mg/ml) was used. The tests were sampled by viable count and then incubated at 8° C. and tested on a twice-weekly basis.

[5] = test system: Ps. fluorescens 327; assay: Chicken soup trial at 8° C.; type: cell-based, Pseudomonas fluorescens; conditions: chicken soup at 8° C., TCSM010521, APP215
Source text: as §4, §5, §6, §7

[6] = test system: B. cereus 204; assay: Chicken soup trial at 20° C.; type: cell-based, Bacillus cereus; conditions: chicken soup at 20° C., TCSM010430, APP20010213
Source text: as §4, §5, §6
For TCS010430/20 (incubated at 20° C.) samples were prepared in 18.8 g quantities, to which 1 g of a suitable filter-sterilised APP stock solution was added and an appropriately diluted 0.2 ml inoculum. Great care was again taken to ensure homogeneous distribution of the APP and micro-organisms. This test was sampled by viable count test on a daily basis.

[7] = test system: Br. thermosphacta CRA78883; assay: Test in cooked minced beef slurry; type: cell-based, Brochothrix thermosphacta; conditions: 2000 ppm; minced beef slurry at 8° C., pH 6.24, TCM010619
Protocol: 1 kg of minced beef, purchased from the local butcher, was mixed with 1 litre of BHI. 200 g portion of this meat slurry was autoclaved. When the meat had cooled, the pH was recorded (pH 6.24), and each pot was inoculated with 2.0 ml of 10^5 spores or cells and the meat re-mixed thoroughly. Each inoculated 200 g pot was distributed as 3×50 g portions. To each pot 1 ml of SDW, 5% or 10% APP (Batch No. APP20010215) was added, and the meat was again mixed thoroughly. An initial viable count was performed, the meat was incubated at 8° C. and sampled twice weekly. The pH of the cooked minced beef slurry was 6.24.

[8] = tests disclosed by Baute et al., Phytochemistry 33 (1993); cited from earlier work
[9] = 2000 ppm, TCS010412, APP20010213
[10] = 4000 ppm, TCS010412, APP20010213

With `O=C1CC(CO)OC=C1O` (stereo not drawn) [APP, Ascopyrone P] as the compound, how does the “APP level causing significant inhibition” value [1] read?
Its value is 2000 ppm.

And the “APP level causing total inhibition” value [1]?
The value was 3000 ppm.

And the “APP level causing significant inhibition” value [2]?
Its value is 2000 ppm.

And the “APP level causing total inhibition” value [2]?
The value was 4000 ppm.

What about the “Viable count after 2 h incubation” value ([3]; 24.7 μg/ml APP E002012, 10 mM HEPES buffer (pH 7)) of the same compound?
The value was 1.3 × 10^7.

What about the “Listeria counts after 2 h incubation” value ([3]; 24.7 μg/ml APP, buffer) of the same compound?
The value was “remained steady”.

And the Effect on growth ([4]; 500 ppm, TCSM010521, APP215)?
The Effect on growth was “No effect with 500 ppm”.

And the Effect on growth ([4]; 1000 ppm, TCSM010521, APP215)?
The Effect on growth was “No total inhibition”.

What about the “Effect on growth rate” value ([4]; 1000 ppm, TCSM010521, APP215) of the same compound?
Its value is “slight reduction”.

And the Counts reach [4, 9]?
The Counts reach was “Counts reach <105 with 2000 ppm”.

What about the Counts undetectable after [4, 9] of the same compound?
The Counts undetectable after was “Counts undetectable after ca 50 days at 2000 ppm”.

What about the Counts undetectable after [4, 10] of the same compound?
Its Counts undetectable after is “Counts undetectable after 20 days at 4000 ppm”.

What about the “Total inhibition for” value [4, 10] of the same compound?
Its value is “Total inhibition by 4000 ppm for >60 days”.

What about the Effect on growth ([5]; 500 ppm) of the same compound?
Its Effect on growth is “Little effect with 500 ppm”.

What about the Counts undetectable ([5]; 1000 ppm) of the same compound?
The Counts undetectable was “At 1000 ppm counts undetectable >7 d”.

And the “Total inhibition for” value ([5]; 1000 ppm)?
The value was “Total inhibition by 1000 ppm for >27 days”.

And the Effect on growth ([6]; 500 ppm)?
Its Effect on growth is “No significant effect with 500 ppm”.

And the Effect on growth ([6]; 1000 ppm)?
Its Effect on growth is “Extension of lag with 1000 ppm”.

And the “Total inhibition for” value ([6]; 2000 ppm)?
Its value is “Total inhibition by 2000 ppm for >42 days”.

What about the Effect on growth [7] of the same compound?
Its Effect on growth is “No effect with 2000 ppm”.

What about the “Function as an antibiotic” value [8] of the same compound?
The value was “did not function satisfactorily as an antibiotic”.
